Assay results as given in patent publication US7718768B2, “Biologically active peptide [sequence]” (CMS Peptides Patent Holding Company Limited, priority 2001, dated 2010).
Marks after values point to notes of the source that are not given here. No end group written: not given here.

Key:
Format in all cases: in vivo, BALB/c mice
anti-SRBC antibody = experiment: Sheep Red Blood Cell (SRBC) hemolysis test, anti-SRBC antibody formation; conditions: SRBC on day 12, IFN-γ and IL-2 groups 3×10^5 IU/kg/day, X ± SD
Procedure, shortened: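 Hemolytic antibody read-out: day-16 mouse serum (1:500) incubated 10 min at 37 °C with 2% SRBC and Cavy-serum complement, supernatant treated with Drabkin solution, OD540nm measured. Animals were SRBC-immunized i.p. (0.2 ml) on day 12 during dosing.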

NK cell = NK cell cytotoxicity activity test (YAC-1 target cells, MTT) on spleen cells of treated mice; conditions: IFN-γ and IL-2 groups 3×10^5 IU/kg/day, X ± SD
Experimental: (§1) The above substances were all dissolved in 0.5 ml saline and injected intraperitoneal (i.p.) for 15 continuous days, once per day.
(§2) Ten mice per group. The day after the last test substance administration, the mice were sacrificed by cervical dislocation. The spleen was isolated aseptically and manually dispersed in cold D-Hank's solution using an injection needle. The dispersed cell suspension was further sieved through a 100 gauge 150 μm diameter stainless steel sieve. After centrifugation at 200 g for 10 minutes, the supernatant was discarded. The cell pellet was re-suspended in 10 volume of Tris-NH4Cl buffer and then kept standing still for 10 minutes at room temperature. The suspended cells were collected by centrifugation at 150 g for 10 minutes. The cells were washed 2-4 times with cold D-Hank's solution by re-suspending and collecting by centrifugation with condition as described above. The washed cells were then diluted to the desired cell densities by RPMI-1640 culture medium, containing 10% fetal bovine serum.
Mice spleen cells were prepared to 4×10^6/ml as described in section 1.1 above. Target cells YAC-1 were brought to log phase and adjusted to 1×10^5/ml. Using a 96 wells cell culture plate, 100 μl mouse spleen cells and 100 μl culture medium were added to the control well containing only the spleen cells; 100 μl target cells and 100 μl culture medium were added to the control well containing only target cells; 100 μl mouse spleen cells and 100 μl target cells were added to the NK activity assay well. Three parallel sets of the above were prepared per mouse.
Samples were centrifuged at 150 g for 10 minutes to collect the cells. The supernatant was discarded and 50 μl/well MTT of 1 mg/ml was added. The reaction mixture was then shaken for 2 minutes, and incubated at 37° C., 5% CO2 for 4 hours. The supernatant was discarded after centrifugation at 150 g for 10 minutes. 120 μl 40 mM HCl-2-propanol was added and shaken for 3 minutes. An ELISA reader was used to obtain OD570nm of each well referenced at 630 nm.

[1] = immunity organ weight test (thymus gland index, spleen index); conditions: X ± SD
Procedure, shortened: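 Organs (thymus, spleen, liver) were weighed one day after the last of 15 daily i.p. doses given in saline. Indices are expressed as percentage of body weight, with α derived from body weight relative to combined liver and spleen weight.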

T lymphocyte = T lymphocyte transformation test (ConA, MTT) on spleen cells of treated mice; set-up: key: OD of assay wells divided by OD of control wells; conditions: IFN-γ and IL-2 groups 3×10^5 IU/kg/day, X ± SD
Experimental: as §1, §2
Spleen cells of density 1×10^6/ml were placed onto a 96 wells cell culture plate, 100 μl/well, three parallel wells each of the assay sample and control sample per mouse. To the assay wells, 100 μl/well ConA of 100 μg/ml in RPMI-1640 was added, and 100 μl/well plain RPMI-1640 was used for the controls. The cells were incubated for 66 hrs at 37° C., 5% CO2. The cells were then pelleted by centrifugation at 150 g for 10 minutes.
50 μl/well MTT of 1 mg/ml in RPMI-1640 was added to the cell pellet and the cells re-suspended by shaking for 2 minutes. The incubation was continued for 4 hours. The supernatant was discarded after centrifugation at 150 g for 10 minutes. 120 μl 40 mM HCl-2-propanol was added to the cell pellet and shaken for 3 minutes. to obtain OD570nm of each well referenced at 630 nm. An ELISA reader was used
Each mouse formed three assay wells and three control wells. The Stimulation Index (SI) of each mouse was obtained by first deriving the average OD of the three parallel wells, then dividing the value of the assay wells by the control wells.

[2] = peptide 0.5 μg/kg/day i.p. 15 days
[3] = peptide 5 μg/kg/day i.p. 15 days
[4] = peptide 50 μg/kg/day i.p. 15 days
[5] = peptide 5 μg/kg/day i.p. 15 days, IFN-γ and IL-2 groups 3×10^5 IU/kg/day
[6] = peptide 50 μg/kg/day i.p. 15 days, IFN-γ and IL-2 groups 3×10^5 IU/kg/day
[7] = peptide 500 μg/kg/day i.p. 15 days, IFN-γ and IL-2 groups 3×10^5 IU/kg/day
[8] = peptide 500 μg/kg/day i.p. 15 days
[9] = peptide 0.5 μg/kg/day i.p. 15 days, IFN-γ and IL-2 groups 3×10^5 IU/kg/day

| Substance | anti-SRBC antibody formation (sample serum index) (anti-SRBC antibody; [2]) | anti-SRBC antibody formation (sample serum index) (anti-SRBC antibody; [3]) | anti-SRBC antibody formation (sample serum index) (anti-SRBC antibody; [4]) | NK cell cytotoxic activity (NK cell activity index) (NK cell; [3]) | weight of thymus gland (thymus gland index) [1, 5] | weight of thymus gland (thymus gland index) [1, 6] | weight of thymus gland (thymus gland index) [1, 7] | stimulation index (T lymphocyte transformation) (T lymphocyte; [3]) | anti-SRBC antibody formation (sample serum index) (anti-SRBC antibody; [8]) | NK cell cytotoxic activity (NK cell activity index) (NK cell; [4]) [%] | weight of spleen (spleen index) [1, 8] [%] | stimulation index (T lymphocyte transformation) (T lymphocyte; [4]) | NK cell cytotoxic activity (NK cell activity index) (NK cell; [8]) | weight of thymus gland (thymus gland index) [1, 9] | weight of spleen (spleen index) [1, 6] [%] | stimulation index (T lymphocyte transformation) (T lymphocyte; [2]) | stimulation index (T lymphocyte transformation) (T lymphocyte; [8]) | NK cell cytotoxic activity (NK cell activity index) (NK cell; [2]) [%] | weight of spleen (spleen index) [1, 3] [%] | weight of spleen (spleen index) [1, 9] [%] |
| --- | --- | --- | --- | --- | --- | --- | --- | --- | --- | --- | --- | --- | --- | --- | --- | --- | --- | --- | --- | --- |
| Pro Glu Asn Phe (PENF; listed as Sus scrofa) [CMS034] | 20 ± 2* Unit | 172 ± 37*^@^ Unit | 136 ± 11*^@^ Unit | 90 ± 5 % | 0.27 ± 0.06*^@^ % | 0.19 ± 0.04*^ % | 0.20 ± 0.05*^ % | 1.5 ± 0.2 | – | – | – | – | – | – | – | – | – | – | – | – |
| FNFVPP [CMS003] | 2 ± 1* Unit | 91 ± 24*^@ Unit | 52 ± 11* Unit | – | – | – | – | 1.6 ± 0.2 | 96 ± 18*^@ Unit | 85 ± 6 | 0.40 ± 0.04 | 2.2 ± 0.5*^@^ | – | – | – | – | – | – | – | – |
| VAPEEHPTLLTEAPLNPK [CMS010] | 10 ± 3* Unit | – | – | 82 ± 9 % | 0.27 ± 0.05*^@^ % | – | 0.19 ± 0.04 % | – | 112 ± 30*^@^ Unit | – | – | – | 91 ± 4*^@^ % | 0.21 ± 0.03 % | 0.38 ± 0.05 | 1.7 ± 0.3 | 2.0 ± 0.3*^@^ | – | – | – |
| Tyr Ser Leu (YSL; listed as Sus scrofa) [CMS024] | 98 ± 6*^@^ Unit | 171 ± 39*^@^ Unit | – | 78 ± 3 % | 0.23 ± 0.06*^ % | 0.27 ± 0.02*^@^ % | – | – | 75 ± 29*^@ Unit | – | 0.34 ± 0.05 | – | 89 ± 8 % | – | – | – | – | – | – | – |
| Phe Glu Glu Glu (FEEE; listed as Sus scrofa) [CMS032] | – | 157 ± 37*^@^ Unit | 131 ± 24*^@^ Unit | – | 0.29 ± 0.04*^@^ % | 0.27 ± 0.03*^@^ % | 0.25 ± 0.03*^@^ % | – | – | – | – | – | 87 ± 5 % | 0.21 ± 0.06 % | – | – | – | – | – | – |
| LRVAPEEHPTL [CMS009] | 2 ± 1* Unit | 79 ± 18*^@ Unit | 13 ± 5* Unit | 92 ± 6*^@^ % | – | – | – | – | 113 ± 22*^@^ Unit | – | 0.41 ± 0.03 | – | – | – | – | – | 1.7 ± 0.2 | – | – | – |
| KAVGHLDDLPGAL [CMS008] | – | 97 ± 26*^@ Unit | – | 92 ± 4*^@^ % | – | 0.20 ± 0.04*^@^ % | 0.21 ± 0.03*^@^ % | – | 82 ± 15*^@ Unit | – | – | – | – | 0.22 ± 0.07*^ % | 0.39 ± 0.08 | 1.7 ± 0.3 | – | 46 ± 12 | – | – |
| RVAPEEHPTL [CMS011] | 5 ± 3* Unit | 115 ± 27*^@^ Unit | 67 ± 9*^@ Unit | 76 ± 10 % | 0.22 ± 0.04 % | – | – | – | 188 ± 16*^@^ Unit | – | 0.41 ± 0.04 | – | – | – | – | 1.6 ± 0.4 | – | 79 ± 3 | – | – |
| VGMGQKDSY [CMS019] | 12 ± 3* Unit | 118 ± 20*^@^ Unit | – | – | 0.24 ± 0.02*^@^ % | 0.20 ± 0.03*^@^ % | 0.19 ± 0.02 % | – | 91 ± 26*^@ Unit | – | 0.63 ± 0.08 | – | – | – | – | – | 1.8 ± 0.3 | – | – | – |
| Phe Val Asn Asp (FVND; listed as Sus scrofa) [CMS035] | – | 176 ± 39*^@^ Unit | 97 ± 10*^@^ Unit | – | 0.21 ± 0.04 % | – | – | – | 88 ± 16*^@ Unit | 72 ± 9 | – | – | 90 ± 10 % | – | – | – | – | 76 ± 10 | – | – |
| PSIVGRPRHQGVM [CMS015] | 13 ± 4* Unit | 94 ± 37*^@ Unit | 54 ± 9*^@ Unit | – | 0.20 ± 0.08 % | – | – | – | 136 ± 22*^@^ Unit | 78 ± 8 | 0.36 ± 0.07 | – | – | – | – | – | 1.9 ± 0.3*^@^ | – | 0.38 ± 0.15 | – |
| PTTKTYFPHF [CMS001] | – | 110 ± 24*^@ Unit | – | – | 0.22 ± 0.05 % | – | – | 1.7 ± 0.2 | – | 85 ± 10 | 0.43 ± 0.07 | 2.2 ± 0.5*^@^ | – | – | – | – | – | – | – | 0.40 ± 0.05 |
| IGMESAGIHETTY [CMS016] | – | 93 ± 32*^@ Unit | – | – | 0.22 ± 0.06 % | 0.20 ± 0.03*^@^ % | 0.18 ± 0.05 % | – | 143 ± 38*^@^ Unit | – | – | – | 91 ± 7*^@^ % | – | – | – | – | – | – | – |
